Several values for one entry are separate records, joined by “and”; a condition that tells them apart may be missing. Identical values can stand only once. Like-named read-outs stand apart in the source and are kept apart here. Where a SMILES comes first, the peptide text is derived from it.
Assays:
[1] = test system: N-acetyldehydroleucine acylase; assay: Hydrolysis of other compounds by the acylase (TLC / amino acid analyzer); assay type: biochemical, Zoogloea ramigera; conditions: for rel. activity (%): 50 mM test substrate, 0.1 M tris/HCl pH 9, 25° C., hydrolysis rate with N-acetyldehydroleucine = 100%
Description: A qualitative check was performed for 81 compounds to see whether they are accepted as substrate by the acylase. The test batches contained:
After 16 and 40 hours incubation at 25° C., specimens were taken from the batches, most of which specimens were analyzed in comparison to substrate standards by means of thin-layer chromatography (70% (v/v) ethanol as mobile solvent). The detection took place with ninhydrin spray reagent. A few specimens were tested in addition or alternatively with the amino acid analyzer.
The amino acids produced from the amino acid amides by means of the action of acylase were detected quantitatively with the amino acid analyzer.

[2] = test system: N-acetyldehydroleucine acylase; assay: Influence of additive substances on the splitting of N-acetyldehydroleucine under standard conditions; assay type: biochemical, Zoogloea ramigera
Description: The mixing together of the batches, their storage and the taking of specimens took place under sterile conditions. The standard conditions for the enzyme test were:
20 mM N-Acetyldehydroleucine

[3] = test system: ADL acylase; assay: Stability of the acylase in the presence of different anions; assay type: physicochemical, Zoogloea ramigera; conditions: sodium salt 0.5 M in 50 mM glycine pH 11, 20° to 25° C., raw extract; 500000 µM
Description: The influence of different anions on the stability of ADL acylase was investigated. Raw extract which had been compounded with glycerin to 43.5% (w/v) was diluted 1 : 10 with 0.5 molar solutions of various sodium salts in 50 mM glycine (pH 11) and stored at room temperature (20° to 25° C.). Specimens were taken from time-to-time and their enzymatic activity measured under standard conditions, as described in Example 8a).

[4] = test system: Zoogloea ramigera ABI 1; assay: Induction of N-acetyldehydroleucine acylase in agitated cultures, changing of the inductor; assay type: cell-based; conditions: inductor 3 g/l, agitated culture, pH 7
Description: All raw extracts were tested at least with N-acetyldehydroleucine and N-acetyldehydroisoleucine but, in most cases, also with N-acetyldehydrovaline. […] The enzymatic reaction was stopped in the batches incubated at 30° C. by adding 0.25 ml color reagent (1 g/l 2,4-dinitrophenyl hydrazine in 2 N HCl). After further incubation at 30° C. for 10 minutes with N-acetyldehydroleucine as substrate or 25 minutes with the isoleucine or valine derivative, 1.5 ml 2,5 N NaOH was added.
The keto acid released by the enzymatic hydrolysis forms, together with the 2,4-dinitrophenyl hydrazine, a Schiff's base colored red in the alkaline whose absorption was measured in a spectral photometer at 442 nm against a batch without N-acetyldehydroamino acid (=enzyme blank). A blank reading was deducted from these extinction values which blank reading is obtained if the extinction value of a batch only with buffer (=buffer blank) is deducted from that of a batch with buffer and N-acetyldehydroamino acid but without raw extract (=substrate blank). The concentration of the product produced was determined with a calibrated reference for the corresponding keto acid. The enzyme activity is indicated in international units. One unit (U) corresponds to an amount of 1 μmole released keto acid per minute.
Different substances were added in a concentration of 3 g/l as inductors into agitated cultures with a medium of mineral salt solution (cf. Example 1) with 0.5 g/l yeast extract and 0.5 g/l peptone at pH 7. The technology for agitated cultures is described in Example 1 a).

[5] = test system: N-acetyldehydroleucine acylase; assay: Acylase activity versus concentration of N-acetyldehydroamino acids (kinetic data); assay type: biochemical, Zoogloea ramigera; conditions: glycine, 0.1 M, pH 9, 30° C.
Description: The activity of the acylase was determined under standard conditions (cf. Example 8a)) with various N-acetyldehydroamino acids in concentrations of 0.1 to 300 mM. A second series of measurements with N-acetyldehydroleucinein the above-indicated concentration range was placed in 0.1 M tris/phosphoric acid buffer.
Reaction conditions: 0.1 M glycine, pH 9, 30° C.
Adaptation to the equation v = Vmax. · S/(KM + S +

Compound | % Residual activity ([2]; inhibitor 1 mM) [%] | % Residual activity ([2]; inhibitor 10 mM) [%] | rel. activity (%) [1] [%] | also measured
CC(=O)N[C@H](C(=O)O)C(C)C [N-acetyl valine] |  |  |  | Substrate specificity: hydrolysis by the acylase [1]: not
O[C@H](CS)[C@H](O)CS (racemic) [Dithiothreitol] | 103 | 58 |  | 
[Cl][Hg][Cl] [HgCl2] | 84 | 70 |  | 
C[C@@H](N)C(N)=O [D-alanine amide] |  |  | 0.46 | 
NC(=O)[C@@H](N)Cc1c[nH]c2ccccc12 [L-tryptophane amide] |  |  | 20.4 | Substrate specificity: hydrolysis by the acylase [1]: hydrolyzes
[Cl-].[Cl-].[Mg+2] [MgCl2] | 95 | 88 |  | 
[N-]=[N+]=[N-].[Na+] [NaN3] | 105 | 103 |  | 
O=C(O)CC(O)(CC(=O)O)C(=O)O [Citrate] | 99 | 84 |  | 
[Cl-].[Cl-].[Co+2] [CoCl2] | 91 | 85 |  | 
O=S(=O)(O)O [Sulfate] |  |  |  | % Residual activity after 3 days [3]: 89%; % Residual activity after 6 days [3]: 94%; % Residual activity after 21 days [3]: 15%
O=S(=O)([O-])[O-].[Cu+2] [CuSO4] | 87 | 83 |  | 
CC(=O)NCC(=O)O [N-acetyl glycine] |  |  | 0 | 
CN(C)C(=O)Oc1cccc([N+](C)(C)C)c1 [Neostigmine] | 102 | 82 |  | % Residual activity ([2]; inhibitor 100 mM): 0%
[Ca+2].[Cl-].[Cl-] [CaCl2] |  | 93 |  | 
CC(C)C[C@H](NC(=O)[C@H](C)N)C(=O)O [L-alanyl-L-leucine] (H-Ala-Leu-OH) |  |  | 0 | 
CC(=O)NC(C(=O)O)C(C)C (racemic) [Ac-D,L-valine] |  |  |  | Acylase activity after 60 hours of incubation as a function of the inductor [4]: 0.031 U/mg
CN[C@@H](CCC(=O)O)C(=O)O [N-methyl-L-glutamic acid] |  |  | 0 | 
C=C(NC(C)=O)C(=O)O [ADA, 2-acetylamino acrylic acid] |  |  |  | % Vmax [5]: 90%; Km [5]: 6.68 mM; Substrate specificity: hydrolysis by the acylase [1]: hydrolyzes
C[C@H](N)C(=O)N[C@@H](Cc1ccccc1)C(N)=O [L-alanyl-L-phenylalanine amide] |  |  | 0 | 
c1cnc2c(c1)ccc1cccnc12 [Phenanthroline] | 94 | 52 |  | 

Compound | % Residual activity ([2]; inhibitor 1 mM) [%] | % Residual activity ([2]; inhibitor 10 mM) [%] | rel. activity (%) [1] [%] | also measured
CC(=O)N[C@@H](CC(C)C)C(=O)O [N-acetyl leucine] |  |  |  | Substrate specificity: hydrolysis by the acylase [1]: not
N=C(N)c1ccc(N)cc1 [pABA, paraaminobenzamidine] |  | 89 |  | % Residual activity ([2]; inhibitor 100 mM): 54%; % Residual activity ([2]; inhibitor 200 mM): 0%
COC(=O)NC(CC(C)C)C(=O)O (racemic) [N-methoxycarbonyl-D,L-leucine] |  |  | 0 | 
N[C@@H]1CON=C1O [Cycloserine] | 111 | 105 |  | 
CC(=O)NC(Cc1ccc(O)cc1)C(=O)O (racemic) [Ac-D,L-tyrosine] |  |  |  | Acylase activity after 60 hours of incubation as a function of the inductor [4]: 0.011 U/mg
c1ccc(-c2ccccn2)nc1 [Bipyridine] | 91 | 70 |  | 
COC(=O)NC(C(=O)O)C(C)C (racemic) [N-methoxycarbonyl-D,L-valine] |  |  | 0 | 
CC(=O)NC(CC(C)C)C(=O)O (racemic) [N-acetyl-D,L-leucine] |  |  | 0 | 
N[C@@H](Cc1c[nH]c2ccccc12)C(=O)NCC(=O)O [L-tryptophyl glycine] (H-Trp-Gly-OH) |  |  | 0 | 
NC(=O)N[C@@H](Cc1ccccc1)C(=O)O [N-carbamoyl-L-phenylalanine] |  |  | 0 | 
Phosphate |  |  |  | % Residual activity after 3 days [3]: 96%; % Residual activity after 6 days [3]: 105%; % Residual activity after 21 days [3]: 27%
CC(C)C[C@H](NC(=O)CN)C(=O)O [Glycyl-L-leucine] |  |  | 0 | 
O=C(O)CN(CCN(CC(=O)O)CC(=O)O)CC(=O)O [EDTA] |  |  |  | % Residual activity [2]: 95%
[Cl][Mn][Cl] [MnCl2] | 99 | 87 |  | 
CC(=O)NC(Cc1ccccc1)C(=O)O (racemic) [Ac-D,L-phenylalanine] |  |  |  | Acylase activity after 60 hours of incubation as a function of the inductor [4]: 0.031 U/mg
CC(C)[C@H](NC(N)=O)C(=O)O [N-carbamoyl-L-valine] |  |  | 0 | 
O=C(O)c1cc[c]([Hg][OH])cc1 [pCMB, parahydroxy mercury benzoate] | 104 | 98 |  | 
NNC(N)=O [Semicarbazide] | 113 | 93 |  | 
C[C@H](N)C(N)=O [L-alanine amide] |  |  | 0.35 | 
CC(=O)N[C@@H](Cc1ccccc1)C(=O)O [N-acetyl-L-phenylalanine] |  |  | 0 | 

Compound | % Residual activity ([2]; inhibitor 1 mM) [%] | % Residual activity ([2]; inhibitor 10 mM) [%] | rel. activity (%) [1] [%] | also measured
O=S(=O)(F)Cc1ccccc1 [PMSF, phenylmethane sulfonyl fluoride] |  |  |  | % Residual activity ([2]; inhibitor 0.0001 mM): 10%; % Residual activity ([2]; inhibitor 0.01 mM): 0%; Inhibition of the acylase ([2]; phenylmethane sulfonyl fluoride still in micromolar concentration): sharply inhibit; Influence of inhibitors on the acylase ([2]; phenylmethane sulfonylfluoride: 0.001 mM): exert an inhibitory action
CC(C)C[C@H](N)C(=O)NCC(=O)O [L-leucyl glycine] (H-Leu-Gly-OH) |  |  | 0 | 
CC(C)CC(NC(=O)c1ccccc1)C(=O)O (racemic) [N-benzoyl-D,L-leucine] |  |  | 0 | 
O=CO [Formate] |  |  |  | % Residual activity after 3 days [3]: 76%; % Residual activity after 6 days [3]: 63%; % Residual activity after 21 days [3]: 2%
NC(=O)CI [iodine acetamide] | 104 | 74 |  | 
CC(C)C[C@@H](N)C(N)=O [D-leucine amide] |  |  | 3.82 | Substrate specificity: hydrolysis by the acylase [1]: hydrolyzes
OCCS [MeSH, mercaptoethanol] | 93 | 99 |  | % Residual activity ([2]; inhibitor 100 mM): 81%
O=C(O)CI [iodine acetate] |  |  |  | % Residual activity [2]: 76% and 49%
CNC(CC(C)C)C(=O)O (racemic) [N-methyl-D,L-leucine] |  |  | 0 | 
CSCC[C@H](N)C(N)=O [L-methionine amide] |  |  | 4.69 | Substrate specificity: hydrolysis by the acylase [1]: hydrolyzes
N[C@@H](CCC(=O)N[C@@H](CS)C(=O)NCC(=O)O)C(=O)O [Glutathione reduced] |  |  |  | % Residual activity [2]: 95%
CC(C)C[C@H](N)C(N)=O [L-leucine amide] |  |  | 6.80 | Substrate specificity: hydrolysis by the acylase [1]: hydrolyzes
NC(=O)[C@@H](N)Cc1c[nH]c2ccccc12 [tryptophane amide] |  |  |  | Substrate specificity: hydrolysis by the acylase [1]: split with a reaction rate on the order like that achieved with N-acetyldehydroamino acids
CC(=O)N[C@@H](C)C(=O)N[C@H](C(=O)O)C(C)C [N-acetyl-L-alanyl-L-valine] (Ac-Ala-Val-OH) |  |  | 0 | 
C[C@H](N)C(=O)NCC(=O)O [L-alanyl glycine] (H-Ala-Gly-OH) |  |  | 0 | 
NC(=O)[C@H](N)Cc1c[nH]c2ccccc12 [D-tryptophane amide] |  |  |  | Substrate specificity: hydrolysis by the acylase [1]: hydrolyzes
[Cl-].[Cl-].[Zn+2] [ZnCl2] | 95 | 82 |  | 
CC(=O)O [Acetate] |  |  |  | % Residual activity after 3 days [3]: 86%; % Residual activity after 6 days [3]: 81%; % Residual activity after 21 days [3]: 6%
O=C(O)c1cc[c]([Hg][OH])cc1 [pOHMB, parahydroxy mercuric benzoate] | 93 | 91 |  | 
Cl [Chloride] |  |  |  | % Residual activity after 3 days [3]: 35%; % Residual activity after 6 days [3]: 0%; % Residual activity after 21 days [3]: 0%

From patent US5134073A, “Microbiologically produced N-acetyl-2,3-didehydroleucine acylase” (Degussa Aktiengesellschaft, priority 1989, dated 1992)
